Our source for the Emax and DC50 values is ChEMBL document CHEMBL5113555, “Potent PROTACs Targeting EGFR Mutants in Drug Discovery” (ACS Med Chem Lett, 2022).

Test [1] relates to Protein cereblon/Epidermal growth factor receptor (Homo sapiens), P00533+Q96SW2 [UNDEFINED MUTATION]. As to the kind of experiment: Protac activity at E3 ubiquitin ligase/EGFR Del19/[…]/C797S mutant assessed as E3 ubiquitin ligase mediated EGFR degradation in human NCI-H1975 cells expressing Del19/[…]/C797S mutant in clone 28 after 16 hrs by HTRF assay relative to control. The format is cell-based.

Test [2] addresses Protein cereblon/Epidermal growth factor receptor (Homo sapiens, UniProt P00533+Q96SW2). As to the kind of experiment: Protac activity at E3 ubiquitin ligase/EGFR Del19/[…]/C797S mutant assessed as E3 ubiquitin ligase mediated EGFR degradation in human NCI-H1975 cells expressing Del19/[…]/C797S mutant in clone 28 after 16 hrs by HTRF assay. The format is cell-based.

Protein cereblon/Epidermal growth factor receptor, sequence (P00533 whole entry, looked up, stated change not applied): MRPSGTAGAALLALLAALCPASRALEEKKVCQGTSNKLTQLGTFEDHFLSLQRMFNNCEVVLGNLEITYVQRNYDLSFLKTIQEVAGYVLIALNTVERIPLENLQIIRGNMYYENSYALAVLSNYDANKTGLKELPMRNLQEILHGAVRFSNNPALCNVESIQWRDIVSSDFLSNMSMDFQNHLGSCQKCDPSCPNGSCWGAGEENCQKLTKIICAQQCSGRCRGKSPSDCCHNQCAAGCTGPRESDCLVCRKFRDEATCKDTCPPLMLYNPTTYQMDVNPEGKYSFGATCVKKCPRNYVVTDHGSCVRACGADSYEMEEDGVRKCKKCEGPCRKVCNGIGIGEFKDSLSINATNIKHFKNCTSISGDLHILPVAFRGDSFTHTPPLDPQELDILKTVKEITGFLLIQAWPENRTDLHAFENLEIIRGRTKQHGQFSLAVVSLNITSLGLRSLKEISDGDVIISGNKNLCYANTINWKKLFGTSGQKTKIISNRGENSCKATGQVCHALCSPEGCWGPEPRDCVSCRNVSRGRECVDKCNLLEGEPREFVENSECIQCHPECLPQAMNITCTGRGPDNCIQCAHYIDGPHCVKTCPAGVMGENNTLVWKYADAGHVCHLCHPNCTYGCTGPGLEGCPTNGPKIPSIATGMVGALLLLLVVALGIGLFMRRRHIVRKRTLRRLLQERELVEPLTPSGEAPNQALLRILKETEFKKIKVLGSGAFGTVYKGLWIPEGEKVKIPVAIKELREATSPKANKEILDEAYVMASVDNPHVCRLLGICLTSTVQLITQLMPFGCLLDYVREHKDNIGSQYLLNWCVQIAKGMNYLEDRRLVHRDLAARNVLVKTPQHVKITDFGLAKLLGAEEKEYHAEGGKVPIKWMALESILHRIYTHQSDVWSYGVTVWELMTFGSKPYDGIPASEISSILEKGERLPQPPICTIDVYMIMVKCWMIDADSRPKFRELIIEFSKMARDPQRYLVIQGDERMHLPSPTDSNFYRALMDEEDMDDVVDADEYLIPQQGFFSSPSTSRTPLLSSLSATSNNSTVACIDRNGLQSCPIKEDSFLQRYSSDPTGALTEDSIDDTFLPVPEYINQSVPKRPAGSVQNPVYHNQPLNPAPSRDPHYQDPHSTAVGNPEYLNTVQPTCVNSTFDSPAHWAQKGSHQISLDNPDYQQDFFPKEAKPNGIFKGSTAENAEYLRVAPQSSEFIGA
Protein cereblon/Epidermal growth factor receptor, sequence (Q96SW2 whole entry, looked up, stated change not applied): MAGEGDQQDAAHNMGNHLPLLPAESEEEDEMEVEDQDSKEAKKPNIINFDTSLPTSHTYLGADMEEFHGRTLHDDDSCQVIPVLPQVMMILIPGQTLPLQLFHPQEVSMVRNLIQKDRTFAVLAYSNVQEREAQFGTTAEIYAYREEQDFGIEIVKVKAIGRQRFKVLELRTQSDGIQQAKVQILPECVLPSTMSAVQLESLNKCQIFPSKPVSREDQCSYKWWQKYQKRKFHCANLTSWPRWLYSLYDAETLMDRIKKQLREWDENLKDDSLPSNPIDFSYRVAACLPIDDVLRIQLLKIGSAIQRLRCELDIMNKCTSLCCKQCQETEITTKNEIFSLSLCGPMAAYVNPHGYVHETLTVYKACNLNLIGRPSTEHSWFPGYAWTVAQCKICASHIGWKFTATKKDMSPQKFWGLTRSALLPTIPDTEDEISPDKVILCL
Protein cereblon/Epidermal growth factor receptor (Homo sapiens), P00533+Q96SW2 [UNDEFINED MUTATION], sequence (P00533 whole entry, looked up, stated change not applied): as the sequence (P00533 whole entry, looked up, stated change not applied) above
Protein cereblon/Epidermal growth factor receptor (Homo sapiens), P00533+Q96SW2 [UNDEFINED MUTATION], sequence (Q96SW2 whole entry, looked up, stated change not applied): as the sequence (Q96SW2 whole entry, looked up, stated change not applied) above

`CCOc1cc(N2CCC(N3CCN(CCc4cc(F)c(F)c5c4oc(=O)n5C4CCC(=O)NC4=O)CC3)CC2)c(CC)cc1Nc1ncc(Br)c(Nc2cnc3ccccc3c2P(C)(C)=O)n1` (centres undefined): the Emax in test [1] came to 81%. In addition, the DC50 (usually the midpoint of the concentration-degradation curve) in test [2] turned out to be 600 nM.

For the compound `CCc1cc(Nc2ncc(Br)c(Nc3cnc4ccccc4c3P(C)(C)=O)n2)c(OC)cc1N1CCC(N2CCN(CCc3cccc4c3n(C3CC3)c(=O)n4C3CCC(=O)NC3=O)CC2)CC1` (centres undefined), the Emax in test [1] was found to be 85%. Moreover, the DC50 in test [2] turned out to be 700 nM.

With `CCc1cc(Nc2ncc(Br)c(Nc3cnc4ccccc4c3P(C)(C)=O)n2)c(OC)cc1N1CCC(N2CCN(CCc3ccc4c(oc(=O)n4C4CCC(=O)NC4=O)c3F)CC2)CC1` (centres undefined), the Emax in test [1] was 81%. Moreover, the DC50 in test [2] came to 900 nM.

Consider `CCOc1cc(N2CCC(N3CCN(CCc4cccc5c4n(C)c(=O)n5C4CCC(=O)NC4=O)CC3)CC2)c(CC)cc1Nc1ncc(Br)c(Nc2cnc3ccccc3c2P(C)(C)=O)n1` (centres undefined), for which the Emax in test [1] came out at 84%. In addition, in test [2], the DC50 was determined as 4400 nM.

On to `CCc1cc(Nc2ncc(Br)c(Nc3cnc4ccccc4c3P(C)(C)=O)n2)c(OC)cc1N1CCC(N2CCN(CCc3ccc(F)c4c3n(C)c(=O)n4C3CCC(=O)NC3=O)CC2)CC1` (centres undefined), for which the Emax in test [1] came out at 86%. In addition, in test [2], the DC50 turned out to be 1000 nM.

As for `CCc1cc(Nc2ncc(Br)c(Nc3cnc4ccccc4c3P(C)(C)=O)n2)c(OC)cc1N1CCC(N2CCN(CCc3cccc4c3n(CC)c(=O)n4C3CCC(=O)NC3=O)CC2)CC1` (centres undefined), the Emax in test [1] turned out to be 83%. The DC50 in test [2] turned out to be 900 nM.

For `CCOc1cc(N2CCC(N3CCN(CCc4cccc5c4n(C)c(=O)n5C4CCC(=O)NC4=O)CC3)CC2)c(CC)cc1Nc1ncc(Br)c(Nc2cnc3cc(F)ccc3c2P(C)(C)=O)n1` (centres undefined), the Emax in test [1] stood at 84%. Further, the DC50 in test [2] was found to be 400 nM.
